Consider seven compounds from patent US7728042B2, “Transdermal pharmaceutical composition” (Richter Gedeon Vegyeszeti Gyar RT, priority 2003, dated 2010).

Data set [1] is described as follows: Active agent release, Microette Hanson vertical diffusion cell, hydrophilic membrane soaked with water. The following applies: for Release kinetics of the active agent: liquid crystal transdermal gel, Q=Q0+nt^0.5.
Data set [2] is described as follows: Active agent release, Microette Hanson vertical diffusion cell, lipophilic membrane soaked with isopropyl myristate. The following applies: release from liquid crystal gel, FIGS. 7-14.
For data set [3] the following is noted: oral administration; cited from earlier work.

Turning to `CCc1ccc(C(=O)C(C)CN2CCCCC2)cc1` (stereo not shown) [Eperisone, 1-(4-ethyl-phenyl)-2-methyl-3-(1-piperidinyl)-1-propanon], the “Release kinetics of the active agent” value in data set [1] is recorded as “generally follows the Higuchi-like relationship”.

As to `CNC1(c2ccccc2Cl)CCCCC1=O` (stereo not shown) [Ketamine, 2-(2-chloro-phenyl)-2-(methyl-amino)-cyclohexanon], in data set [1] (liquid crystal gel with low molecular weight sodium-hyaluronate, ondansetron 1.2%, terbinafine 2.0%, metronidazole 0.9%, eperisone 0.8%, tolperisone 1.0%, ketamine 1.0%), the “Active agent release in 4 hours, Hydrophilic membrane” value turned out to be 9.73 μg/cm^2. For the same compound, the “Release kinetics of the active agent” value in data set [1] is on record as “generally follows the Higuchi-like relationship”. Moreover, the “Crossing of the hydrophilic membrane” value in data set [1] (release from liquid crystal gel, FIGS. 7-14) was “cross the hydrophilic membrane quickly and effectively”. Moreover, the “Crossing of the membrane impregnated with lipophilic fluid” value in data set [2] is on record as “do not cross the membrane impregnated with lipophilic fluid”.

Consider `Cc1ncc([N+](=O)[O-])n1CCO` [Metronidazole, 1-(2-hydroxy-1-ethyl)-2-methyl-5-nitro-imidazol], for which the “Release kinetics of the active agent” value in data set [1] is listed as “generally follows the Higuchi-like relationship”.

Regarding `Cc1nccn1CC1CCc2c(c3ccccc3n2C)C1=O` (stereo not shown) [Ondansetron, 1,2,3,9-tetrahydro-9-methyl-3-[(2-methyl-1H-imidazol-1-il)-methyl]-4H-karbazol-4-on], the “Release kinetics of the active agent” value in data set [1] is on record as “generally follows the Higuchi-like relationship”.

`CN(C/C=C/C#CC(C)(C)C)Cc1cccc2ccccc12` [Terbinafine, N-(6,6-dimethyl-2-heptene-4-inyl)-N-methyl-(E)-naphtal-1-en-methan-amine]: the “Release kinetics of the active agent” value in data set [1] is “generally follows the Higuchi-like relationship”.

`Cc1ccc(C(=O)C(C)CN2CCCCC2)cc1` (stereo not shown) [Tolperisone, 1-piperidino-2-methyl-3-(p-tolyl)-3-propanon]: the “Release kinetics of the active agent” value in data set [1] was “generally follows the Higuchi-like relationship”.

Turning to `CCOC(=O)C1=C[C@]2(CC)CCCN3CCc4c(n1c1ccccc41)[C@@H]32` [vinpocetine, (3α,16α)-eburnamenine-14-carboxylic acid ethylester], the Bioavailability in data set [3] was 6-8%.
